From BigSolDB 2.1

O=C1O[B-]2(OC1=O)OC(=O)C(=O)O2.[Li+]
solubility (mole fraction)
Conditions	293.15 K	303.15 K	313.15 K	323.15 K	333.15 K	343.15 K	353.15 K	363.15 K
in DMF	0.114	0.0838	0.0658	0.0542	0.0404	0.0352	0.0323	0.023
in DMSO	0.148	0.139	0.127	0.113	0.0989	0.0869	0.0774	0.0666
in THF	0.0479	0.0336	0.0269	0.0217	0.0172	–	–	–
in acetonitrile	0.00893	0.00869	0.00803	0.00653	0.00566	0.00297	–	–
in gamma-butyrolactone	0.1	0.0796	0.0544	0.0372	0.0248	0.0163	0.00786	0.00503
in propylene carbonate	0.0393	–	0.0312	0.0214	0.0106	0.00574	0.00218	0.00132
